Patent US8815846B2, “Family of antichagasics derived from imidazo[4,5-C][1,2,6]thiadiazine 2,2-dioxide” (Universidad de la Republica de Uruguay, priority 2009, dated 2014)
Read-outs that look alike come from different tables or passages of the source.

What was measured:
[1] = tested on: Trypanosoma cruzi, epimastigote form of the Tulahuen 2 strain; test: In vitro growth inhibition of Trypanosoma cruzi epimastigotes (Tulahuen 2 strain), absorbance at 600 nm; type: cell-based; details: 120 h, absorbance on day 5, duplicate, error ±3%, read-out: IC50 Anti-T. cruzi activity of the Tulahuen 2 strain
Description: The studies of the antichagasic activity were performed in vitro against Trypanosoma cruzi, on the epimastigote form of the Tulahuen 2 strains, (from the strains collection of the Biological Physicochemistry Laboratory, of the Institute of Biological Chemistry, of the Faculty of Science, University of the Republica Oriental of Uruguay, Uruguay). Said strains were cultured at 28° C. in an axenic medium (BHI-tryptose), complemented with 5% of fetal bovine serum. […] The growth of the parasite was followed during 11 days by culture absorbance measurements at 600 nm, proportional to the number of cells present. Before inoculation, a pre-established quantity of each compound of the invention to test was incorporated in the medium, dissolved in DMSO (dimethylsulfoxide). The final concentration of DMSO in the culture medium never exceeded 0.4%, using a blank (absence of product or compound of the invention) with 0.4% DMSO. […] The growth PI was calculated as follows: PI={1−[(Ap−Aop)/(Ac−Aoc)]}×100 where: • Ap=A600 nm of the culture containing the product on day 5. • Aop=A600 nm of the culture containing the product after addition of the culture (day 0). • Ac=A600 nm of the blank on day 5. • Aoc=A600 nm of the blank on day 0. The A600 nm taken on day 5 corresponds to the late exponential phase in the culture growth curve. The determination of the IC50 (half maximal inhibitory concentration) was performed following the growth of the parasite in the absence (control) and presence of increasing concentrations of the corresponding products. The absorbance was measured on day 5 and it was related to the control.

[2] = tested on: J774 murine macrophages; test: Non-specific cytotoxicity against J774 murine macrophages (MTT/formazan); type: cell-based; details: for IC50: Mus musculus, read-out: IC50 concentration of compound which reduces the growth of macrophages by 50%; for PC J774 macrophages (%) (percentage of non-specific cytotoxicity): MTT
Description: The cellular viability was determined based on the conservation of mitochondrial activity by the MTT/formazan method.

[3] = target: cruzipain (Trypanosoma cruzi, UniProt P25779); test: Cruzipain enzyme inhibition (chromogenic substrate Bz-Pro-Phe-Arg-p-NA, absorbance 410 nm); type: biochemical; details: 10 min preincubation, pH 7.6, read-out: % Inhibition CP (cruzipain); for inhibition at 25 µM: 25 μM inhibitor; for inhibition at 50 µM: 50 μM inhibitor; for inhibition at 100 µM: 100 μM inhibitor
Description: The capacity of inhibiting the cruzipain enzyme was performed according to the protocol detailed below: cruzipain (10 μL) was incubated with a reaction mixture containing a final concentration of 50 mM of Tris-HCl buffer solution, pH 7.6, 10 mM β-mercaptoethanol and 25, 50 or 100 μM of the inhibitor during 10 min at ambient temperature. Later the chromogenic substrate Bz-Pro-Phe-Arg-p-NA was aggregated at a final concentration of 150 μM, and the increase in absorbance at 410 nm was followed for 5 min at temperature in a Beckman DU 650 spectrophotometer. The inhibitors were added dissolved in DMSO and the controls (100% of enzymatic activity) contained the same concentration of solvent. The final volume of the assay is 100 μL. The values represented at least three independent assays. The data obtained for some of the derivatives in table 3 are shown by way of example.

[4] = J774 murine macrophages, 48 hours, average of two evaluations

cruzipain, sequence (P25779 123-467): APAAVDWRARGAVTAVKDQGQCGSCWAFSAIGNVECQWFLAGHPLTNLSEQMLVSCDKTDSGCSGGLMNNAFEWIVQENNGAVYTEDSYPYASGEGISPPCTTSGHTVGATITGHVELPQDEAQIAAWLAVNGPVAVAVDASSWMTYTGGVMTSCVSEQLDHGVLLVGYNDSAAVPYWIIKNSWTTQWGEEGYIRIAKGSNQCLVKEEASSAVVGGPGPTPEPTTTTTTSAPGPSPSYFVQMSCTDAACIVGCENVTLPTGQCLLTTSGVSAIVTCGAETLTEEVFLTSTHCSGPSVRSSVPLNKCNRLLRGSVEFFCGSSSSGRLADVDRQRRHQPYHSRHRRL

For `NC1=NS(=O)(=O)N(Cc2ccccc2)c2nc(-c3ccccc3)n(Cc3ccc(Cl)cc3)c21` [Example 3b, 4-amino-1-benzyl-5-(4-chlorobenzyl)-6-phenylimidazo[4,5-c][1,2,6]thiadiazine 2,2-dioxide], the melting point was 245 to 247 °C.
In the case of `CCc1nc2c([nH]1)C(N)=NS(=O)(=O)N2`, the IC50 [1] is reported as 28.5 µM.
With `NC1=NS(=O)(=O)Nc2nc(C3CCCC3)[nH]c21` the IC50 [1] was 28.9 µM.
`CC1CS(=O)(=O)CCN1N=Cc1ccc([N+](=O)[O-])o1` (stereo not shown) [Nifurtimox, 4-([5 nitrofurfurylidene]-amino)-3-methylthiomorpholine-1,1-dioxide, reference compound] gave an IC50 ([2]; J774, 48 h) of 316 µM and an IC50 [1] of 7.7 µM.
Work on `NC1=NS(=O)(=O)Nc2nc(-c3ccccc3F)[nH]c21` yielded an IC50 [1] of 20.2 µM.
In the case of `CN1c2nc(-c3ccccc3)[nH]c2C(N)=NS1(=O)=O` [drawing 22], the “PC J774 macrophages (%) (percentage of non-specific cytotoxicity)” value ([2]; 100 μM compound, 48 hours) is reported as 22.5%, the “PC J774 macrophages (%) (percentage of non-specific cytotoxicity)” value ([2]; 200 μM compound, 48 hours) is reported as 77.5% and the “PC J774 macrophages (%) (percentage of non-specific cytotoxicity)” value ([2]; 400 μM compound, 48 hours) is reported as 99.0%. For the same compound, the IC50 [2, 4] was 128 µM.
`NC1=NS(=O)(=O)Nc2nc(CCc3ccccc3)[nH]c21` [Example 1c, 4-amino-6-phenethyl-1H,5H-imidazo[4,5-c][1,2,6]thiadiazine 2,2-dioxide] showed a melting point of 190 to 192 °C.
Compound `NC1=NS(=O)(=O)N(Cc2ccccc2)c2nc(C3CCCCC3)n(Cc3ccccc3)c21` [drawing 17] has an IC50 [1] of 28.7 µM.
For `NC1=NS(=O)(=O)N(Cc2ccccc2)c2nc(C3CCCCC3)n(Cc3ccc(Cl)cc3)c21`, the inhibition at 25 µM [3] was 10%, the inhibition at 50 µM [3] was 39% and the inhibition at 100 µM [3] was 40%.
Compound `NC1=NS(=O)(=O)N(Cc2ccccc2)c2nc(C3CCCCC3)n(Cc3ccccc3)c21` [drawing 23] has an inhibition at 25 µM [3] of 0%, an inhibition at 50 µM [3] of 30% and an inhibition at 100 µM [3] of 58%.
With `NC1=NS(=O)(=O)Nc2nc(C3CCOC3)[nH]c21` (stereo not shown) [drawing 12] the IC50 [1] was 20.3 µM.
`NC1=NS(=O)(=O)N(Cc2ccc(Cl)cc2)c2nc(C3CCCCC3)[nH]c21` gave an inhibition at 25 µM [3] of 0%, an inhibition at 50 µM [3] of 7% and an inhibition at 100 µM [3] of 28%.
Work on `CC(=O)N1CCN(c2ccc(OCC3COC(Cn4ccnc4)(c4ccc(Cl)cc4Cl)O3)cc2)CC1` (stereo not shown) [Ketoconazole, reference compound] yielded an IC50 ([2]; J774, 48 h) of less than 100 µM.
In the case of `NC1=NS(=O)(=O)N(Cc2ccc(Cl)cc2)c2nc(-c3ccccc3F)[nH]c21` [drawing 21], the “PC J774 macrophages (%) (percentage of non-specific cytotoxicity)” value ([2]; 100 μM compound, 48 hours) is reported as 100.0%, the “PC J774 macrophages (%) (percentage of non-specific cytotoxicity)” value ([2]; 200 μM compound, 48 hours) is reported as 100.0% and the “PC J774 macrophages (%) (percentage of non-specific cytotoxicity)” value ([2]; 400 μM compound, 48 hours) is reported as 100.0%. The IC50 [2, 4] was less than 100 µM.
With `NC1=NS(=O)(=O)Nc2nc(C3CCCCC3)[nH]c21` [drawing 11] the IC50 [1] was 12.7 µM.
`NC1=NS(=O)(=O)N(Cc2ccc(Cl)cc2)c2nc(C3CCCCC3)n(Cc3ccc(Cl)cc3)c21` gave an inhibition at 100 µM [3] of 31%.
With `NC1=NS(=O)(=O)N(Cc2ccccc2)c2nc(-c3ccccc3)n(Cc3ccccc3)c21` [Example 3a, 4-amino-1,5-dibenzyl-6-phenylimidazo[4,5-c][1,2,6]thiadiazine 2,2-dioxide] the melting point was 238 to 240 °C.
`NC1=NS(=O)(=O)N(Cc2ccccc2)c2nc(-c3ccccc3)n(Cc3ccc(Cl)cc3)c21` [drawing 18] gave an IC50 [1] of 10 µM.
Compound `NC1=NS(=O)(=O)N(Cc2ccccc2)c2nc(-c3ccccc3)n(Cc3ccccc3)c21` [drawing 10] has an IC50 [1] of 4.5 µM.
Work on `NC1=NS(=O)(=O)N(Cc2ccccc2)c2nc(-c3ccccc3)[nH]c21` yielded an IC50 [1] of 29.5 µM.
For `CN(C/C=C/C#CC(C)(C)C)Cc1cccc2ccccc12` [Terbinafine, reference compound], the “PC J774 macrophages (%) (percentage of non-specific cytotoxicity)” value ([2]; 100 μM compound, 48 hours) was 10.0%, the “PC J774 macrophages (%) (percentage of non-specific cytotoxicity)” value ([2]; 200 μM compound, 48 hours) was 26.0% and the “PC J774 macrophages (%) (percentage of non-specific cytotoxicity)” value ([2]; 400 μM compound, 48 hours) was 60.0%. The IC50 [2, 4] was 339 µM.
`CN1c2nc(-c3ccsc3)[nH]c2C(N)=NS1(=O)=O` showed an IC50 [1] of 26.2 µM.
In the case of `NC1=NS(=O)(=O)Nc2nc(-c3ccsc3)[nH]c21`, the IC50 [1] is reported as 22.2 µM.
Compound `NC1=NS(=O)(=O)Nc2nc(C3CCOC3)[nH]c21` (stereo not shown) [Example 1b, 4-amino-6-(3-tetrahydrofuryl)-1H,5H-imidazo[4,5-c][1,2,6]thiadiazine 2,2-dioxide] has a melting point of 238 to 240 °C.
In the case of `NC1=NS(=O)(=O)N(Cc2ccc(Cl)cc2)c2nc(-c3ccccc3F)[nH]c21` [drawing 27], the inhibition at 25 µM [3] is reported as 7%, the inhibition at 50 µM [3] is reported as 30% and the inhibition at 100 µM [3] is reported as 30%.
With `NC1=NS(=O)(=O)Nc2nc(C3CCCCC3)[nH]c21` [drawing 20] the “PC J774 macrophages (%) (percentage of non-specific cytotoxicity)” value ([2]; 100 μM compound, 48 hours) was 1.4%, the “PC J774 macrophages (%) (percentage of non-specific cytotoxicity)” value ([2]; 200 μM compound, 48 hours) was 8.0% and the “PC J774 macrophages (%) (percentage of non-specific cytotoxicity)” value ([2]; 400 μM compound, 48 hours) was 11.5%. For the same compound, the IC50 [2, 4] was greater than 400 µM.
`CN1c2nc(-c3ccccc3)[nH]c2C(N)=NS1(=O)=O` [drawing 8] showed an IC50 [1] of 16.7 µM.
`NC1=NS(=O)(=O)Nc2nc(Cc3ccccc3)[nH]c21` [drawing 7] gave an IC50 [1] of 16.2 µM.
With `NC1=NS(=O)(=O)Nc2nc(CCc3ccccc3)[nH]c21` [drawing 14] the IC50 [1] was 11.5 µM.
Work on `NC1=NS(=O)(=O)Nc2nc(C3CCCCC3)[nH]c21` [Example 1a, 4-amino-6-cyclohexyl-1H,5H-imidazo[4,5-c][1,2,6]thiadiazine 2,2-dioxide] yielded a melting point of 263 to 265 °C.
`CN(C)c1ccc(-c2nc3c([nH]2)C(N)=NS(=O)(=O)N3)cc1` gave an IC50 [1] of 28.5 µM.
In the case of `NC1=NS(=O)(=O)Nc2nc(Cc3ccccc3)[nH]c21` [drawing 19], the “PC J774 macrophages (%) (percentage of non-specific cytotoxicity)” value ([2]; 100 μM compound, 48 hours) is reported as 17.6%, the “PC J774 macrophages (%) (percentage of non-specific cytotoxicity)” value ([2]; 200 μM compound, 48 hours) is reported as 24.3% and the “PC J774 macrophages (%) (percentage of non-specific cytotoxicity)” value ([2]; 400 μM compound, 48 hours) is reported as 29.4%. For the same compound, the IC50 [2, 4] was greater than 400 µM.
`NC1=NS(=O)(=O)N(Cc2ccc(Cl)cc2)c2nc(-c3ccccc3F)[nH]c21` [drawing 16] gave an IC50 [1] of 7 µM.
For `O=C(Cn1ccnc1[N+](=O)[O-])NCc1ccccc1` [Benznidazole, N-benzyl-2-nitro-1-imidazole acetamide, reference compound], the IC50 [1] was 7.4 µM.
